Laboratory results as given in ChEMBL document CHEMBL1201862, “PubChem BioAssay data set” (2004).
The source made the active and inactive calls.

Experiments:
[1] = target: 5-hydroxytryptamine receptor 2A (Mus musculus, UniProt P35363); format: functional, cell-based;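 further: CHO-K1 cells with tagged receptor and beta-arrestin; agonist potency measured as compound-induced activation of the receptor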
[2] = target: Voltage-gated inwardly rectifying potassium channel KCNH2 (Homo sapiens, UniProt Q12809); conditions: Potency;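 further: confirmatory quantitative high-throughput screen measuring inhibition of hERG channel activity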
Voltage-gated inwardly rectifying potassium channel KCNH2, sequence (Q12809 whole entry): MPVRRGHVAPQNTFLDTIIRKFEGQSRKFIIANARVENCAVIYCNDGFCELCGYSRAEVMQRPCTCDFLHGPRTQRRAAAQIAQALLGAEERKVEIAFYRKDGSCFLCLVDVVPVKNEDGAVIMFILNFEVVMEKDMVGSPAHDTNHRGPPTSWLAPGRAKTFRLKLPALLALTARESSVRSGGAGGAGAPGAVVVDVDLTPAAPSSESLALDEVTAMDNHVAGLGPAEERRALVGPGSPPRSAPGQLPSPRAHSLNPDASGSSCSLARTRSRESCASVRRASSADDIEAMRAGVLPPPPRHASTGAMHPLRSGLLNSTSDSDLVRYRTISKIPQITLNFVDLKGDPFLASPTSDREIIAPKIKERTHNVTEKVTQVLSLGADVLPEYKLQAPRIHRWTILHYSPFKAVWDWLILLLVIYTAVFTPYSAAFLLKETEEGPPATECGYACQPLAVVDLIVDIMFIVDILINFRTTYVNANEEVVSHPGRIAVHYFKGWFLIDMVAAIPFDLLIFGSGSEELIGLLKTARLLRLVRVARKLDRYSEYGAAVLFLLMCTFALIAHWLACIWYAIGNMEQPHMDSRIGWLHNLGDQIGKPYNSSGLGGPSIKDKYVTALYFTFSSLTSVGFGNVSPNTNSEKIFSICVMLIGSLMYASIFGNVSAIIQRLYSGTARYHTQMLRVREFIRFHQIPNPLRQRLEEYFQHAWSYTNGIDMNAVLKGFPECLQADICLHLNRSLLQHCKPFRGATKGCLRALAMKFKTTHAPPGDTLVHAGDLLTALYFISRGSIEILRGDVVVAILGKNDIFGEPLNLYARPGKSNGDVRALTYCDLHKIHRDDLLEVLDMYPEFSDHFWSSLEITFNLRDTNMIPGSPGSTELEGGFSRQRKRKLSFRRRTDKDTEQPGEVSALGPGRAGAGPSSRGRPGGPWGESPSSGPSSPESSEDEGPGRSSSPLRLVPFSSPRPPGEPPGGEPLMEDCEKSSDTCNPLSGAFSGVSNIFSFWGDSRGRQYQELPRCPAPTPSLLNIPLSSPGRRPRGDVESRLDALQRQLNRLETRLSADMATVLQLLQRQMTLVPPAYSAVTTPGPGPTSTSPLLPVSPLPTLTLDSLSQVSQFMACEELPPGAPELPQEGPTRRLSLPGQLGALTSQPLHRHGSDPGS

Mu-type opioid receptor = Mu-type opioid receptor (Homo sapiens, UniProt P35372); format: functional, cell-based;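 further: U2OS cells with beta-arrestin recruitment to OPRM1 by beta-gal complementation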
Mu-type opioid receptor, sequence (P35372 whole entry): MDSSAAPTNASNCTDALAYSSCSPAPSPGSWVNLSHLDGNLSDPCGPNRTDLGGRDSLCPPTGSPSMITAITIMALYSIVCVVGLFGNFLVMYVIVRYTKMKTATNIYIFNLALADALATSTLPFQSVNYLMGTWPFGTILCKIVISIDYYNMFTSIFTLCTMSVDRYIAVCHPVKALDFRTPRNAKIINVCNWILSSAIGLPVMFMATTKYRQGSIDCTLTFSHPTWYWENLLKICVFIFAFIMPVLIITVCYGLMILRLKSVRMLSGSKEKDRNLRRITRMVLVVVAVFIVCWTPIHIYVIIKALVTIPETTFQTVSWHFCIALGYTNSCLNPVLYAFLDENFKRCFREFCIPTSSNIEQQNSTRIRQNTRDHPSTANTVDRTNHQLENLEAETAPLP

[3] = inhibitors of intracellular T. cruzi replication, confirmation, NIH3T3 host cells, beta-gal luminescence (AID 2044); format: functional, cell-based;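 further: intracellular parasites grown in NIH/3T3 mouse fibroblasts as host cells; luminescent beta-galactosidase reporter signal from transgenic T. cruzi replicating inside host cells; inhibitors lower the luminescence signal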
[4] = target: T1, Ubiquitin-conjugating enzyme E2 N (Homo sapiens, UniProt P61088); format: functional
T1 sequence (P61088 whole entry): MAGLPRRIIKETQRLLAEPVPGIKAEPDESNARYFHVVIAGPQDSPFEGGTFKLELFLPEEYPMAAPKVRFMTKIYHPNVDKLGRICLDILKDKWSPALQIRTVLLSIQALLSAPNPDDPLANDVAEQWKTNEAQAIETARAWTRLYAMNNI

[5] = target: T1, Ubiquitin-conjugating enzyme E2 N; format: functional; remark: listed apart in the source
[6] = microbe, parasite or virus in culture; format: functional; conditions: Mycobacterium tuberculosis
Bcl-2-related protein A1 = target: T2, Bcl-2-related protein A1 (Mus musculus, UniProt Q07440); format: functional;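 further: confirmatory dose–response counterscreen on Bfl-1, used to check hits from a UBC13 polyubiquitin inhibitor campaign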
T2 sequence (Q07440 whole entry): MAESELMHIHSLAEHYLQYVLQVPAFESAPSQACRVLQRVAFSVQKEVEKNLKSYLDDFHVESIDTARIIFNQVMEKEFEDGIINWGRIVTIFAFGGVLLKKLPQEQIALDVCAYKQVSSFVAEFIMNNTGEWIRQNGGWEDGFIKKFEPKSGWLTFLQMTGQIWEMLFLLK

[7] = cytotoxicity toward NIH3T3 fibroblasts, dose response, counter-screen, cell-based, ATP luminescence, mouse fibroblasts (AID 2010); format: functional;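 further: cells exposed to compound for about 90 hours before reading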
Coagulation factor XII = target: T3, Coagulation factor XII (Homo sapiens, UniProt P00748); format: functional;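 further: activated factor XIIa alpha cleaving a fluorogenic AMC peptide substrate; inhibitor potency from loss of enzyme activity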
T3 sequence (P00748 whole entry): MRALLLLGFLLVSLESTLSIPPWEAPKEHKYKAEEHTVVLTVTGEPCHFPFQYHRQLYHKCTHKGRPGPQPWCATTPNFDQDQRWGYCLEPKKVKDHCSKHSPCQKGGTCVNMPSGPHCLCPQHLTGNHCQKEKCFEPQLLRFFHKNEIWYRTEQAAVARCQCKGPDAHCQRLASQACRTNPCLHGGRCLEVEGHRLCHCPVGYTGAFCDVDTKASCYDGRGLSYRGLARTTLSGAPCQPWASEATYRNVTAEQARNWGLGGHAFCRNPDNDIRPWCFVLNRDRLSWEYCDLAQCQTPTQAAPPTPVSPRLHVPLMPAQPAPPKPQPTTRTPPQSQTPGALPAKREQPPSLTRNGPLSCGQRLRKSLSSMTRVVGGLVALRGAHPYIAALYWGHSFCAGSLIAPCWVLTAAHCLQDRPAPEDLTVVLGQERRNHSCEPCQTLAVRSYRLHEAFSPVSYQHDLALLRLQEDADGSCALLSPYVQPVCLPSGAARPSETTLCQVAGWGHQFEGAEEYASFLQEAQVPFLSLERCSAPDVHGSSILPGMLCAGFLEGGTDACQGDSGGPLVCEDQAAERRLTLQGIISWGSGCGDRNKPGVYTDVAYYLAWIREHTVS

[8] = target: T4, Mannose-6-phosphate isomerase (Homo sapiens, UniProt P34949); experiment: PMI enzyme inhibitors, confirmation, biochemical, fluorescence intensity (AID 1535)
T4 sequence (P34949 whole entry): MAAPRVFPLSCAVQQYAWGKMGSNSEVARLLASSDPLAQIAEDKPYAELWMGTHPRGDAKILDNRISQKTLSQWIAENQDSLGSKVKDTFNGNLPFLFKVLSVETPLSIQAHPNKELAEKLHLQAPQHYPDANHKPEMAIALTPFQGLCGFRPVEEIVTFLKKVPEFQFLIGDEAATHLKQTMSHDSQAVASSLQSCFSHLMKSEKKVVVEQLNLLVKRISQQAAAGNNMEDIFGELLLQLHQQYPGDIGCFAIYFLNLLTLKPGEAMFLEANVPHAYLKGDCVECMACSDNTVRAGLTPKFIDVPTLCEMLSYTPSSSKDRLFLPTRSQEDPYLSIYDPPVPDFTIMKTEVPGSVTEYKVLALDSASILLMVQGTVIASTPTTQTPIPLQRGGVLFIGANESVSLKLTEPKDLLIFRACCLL

Phosphomannomutase 2 = target: T5, Phosphomannomutase 2 (Homo sapiens, UniProt O15305); experiment: Counter screen SAR assay for PMM2 inhibitors via a fluorescence intensity assay. [Related pubchem assays (depositor defined):AID1545, AID1574]
T5 sequence (O15305 whole entry): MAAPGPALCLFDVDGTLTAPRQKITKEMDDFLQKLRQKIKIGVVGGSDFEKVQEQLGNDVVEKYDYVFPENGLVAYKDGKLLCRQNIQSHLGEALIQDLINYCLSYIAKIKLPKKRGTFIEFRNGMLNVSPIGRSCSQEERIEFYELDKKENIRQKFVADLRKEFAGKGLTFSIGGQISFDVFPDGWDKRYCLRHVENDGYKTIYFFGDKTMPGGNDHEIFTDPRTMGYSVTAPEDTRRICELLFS

Cytochrome P450 2C9 = Cytochrome P450 2C9 (Homo sapiens, UniProt P11712)
Cytochrome P450 2C9, sequence (P11712 whole entry): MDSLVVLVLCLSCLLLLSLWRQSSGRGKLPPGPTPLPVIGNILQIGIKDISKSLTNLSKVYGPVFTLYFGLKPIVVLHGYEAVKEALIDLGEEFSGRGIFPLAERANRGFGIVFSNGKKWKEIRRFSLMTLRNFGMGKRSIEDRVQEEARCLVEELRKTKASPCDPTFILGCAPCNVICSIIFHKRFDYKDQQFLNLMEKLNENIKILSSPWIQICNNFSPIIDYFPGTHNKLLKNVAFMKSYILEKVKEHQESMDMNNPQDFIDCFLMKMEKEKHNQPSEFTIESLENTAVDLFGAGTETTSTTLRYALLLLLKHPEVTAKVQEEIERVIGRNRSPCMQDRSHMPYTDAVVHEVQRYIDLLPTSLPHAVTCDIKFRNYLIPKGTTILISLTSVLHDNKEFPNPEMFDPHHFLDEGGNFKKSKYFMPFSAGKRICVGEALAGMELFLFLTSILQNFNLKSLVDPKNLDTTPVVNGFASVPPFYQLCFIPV

[9] = inhibitors of SNCA 5'UTR-driven reporter translation, confirmation, H4 neuroglioma cells, luminescence (AID 1988); format: functional, cell-based
[10] = target: T6, Heat shock factor protein 1 (Mus musculus, UniProt P38532); experiment: inhibition of MG132-induced HSE-luciferase signal, confirmation, cell-based, NIH3T3, luminescence, dose retest (AID 2382); format: functional;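 further: NIH3T3 fibroblasts with HSF1-driven luciferase reporter stressed by proteasome inhibitor MG132; luminescence from HSF1-driven luciferase expression after 8 hours of MG132 stress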
T6 sequence (P38532 whole entry): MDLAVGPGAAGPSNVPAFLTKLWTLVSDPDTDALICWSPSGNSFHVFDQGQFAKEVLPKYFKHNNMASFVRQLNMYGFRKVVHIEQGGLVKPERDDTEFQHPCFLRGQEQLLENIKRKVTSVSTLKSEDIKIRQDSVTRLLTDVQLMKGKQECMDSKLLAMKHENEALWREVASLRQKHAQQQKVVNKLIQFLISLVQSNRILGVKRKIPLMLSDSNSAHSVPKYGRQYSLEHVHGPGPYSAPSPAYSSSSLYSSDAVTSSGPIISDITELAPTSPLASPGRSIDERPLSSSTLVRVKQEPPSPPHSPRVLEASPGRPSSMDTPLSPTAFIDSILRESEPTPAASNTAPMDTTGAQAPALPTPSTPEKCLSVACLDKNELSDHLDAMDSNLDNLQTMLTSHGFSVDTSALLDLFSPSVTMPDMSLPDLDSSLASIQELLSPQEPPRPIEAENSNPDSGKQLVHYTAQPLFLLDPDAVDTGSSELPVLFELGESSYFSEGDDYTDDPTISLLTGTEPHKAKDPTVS

HEK293 = experiment: cytotoxicity in HEK293T NF-kB-Luc cells, SAR follow-up, cytotoxicity control for NF-kB activator project, cell-based, resazurin fluorescence (AID 493251); format: functional; conditions: Homo sapiens
[11] = inhibitors of firefly luciferase expression or activity, dose response, H4 neuroglioma cells, luminescence (AID 1990); format: functional, cell-based
[12] = target: Dual specificity tyrosine-phosphorylation-regulated kinase 1A (Rattus norvegicus, UniProt Q63470); format: biochemical, Homo sapiens
[13] = target: Peroxisome proliferator-activated receptor gamma/Nuclear receptor coactivator 3 (Homo sapiens, UniProt P37231); experiment: TR-FRET dose response biochemical High Throughput Screening assay for agonists of the steroid receptor coactivator 3 (SRC-3) recruitment by the peroxisome proliferator-activated receptor gamma (PPAR gamma): non-selective agonists. [Related pubchem assays: 1301 (Confirmation screen.), 1048 (Primary screen.)]; format: functional
[14] = target: Peroxisome proliferator-activated receptor gamma/Nuclear receptor coactivator 2 (Homo sapiens, UniProt P37231); experiment: (§1) TR-FRET dose response biochemical High Throughput Screening assay for agonists of the steroid receptor coactivator 2 (SRC-2) recruitment by the peroxisome proliferator-activated receptor gamma (PPAR gamma): non-selective agonists. [Related pubchem assays: 1297, 1032 ]; format: functional
Peroxisome proliferator-activated receptor gamma/Nuclear receptor coactivator 2, sequence (P37231 whole entry): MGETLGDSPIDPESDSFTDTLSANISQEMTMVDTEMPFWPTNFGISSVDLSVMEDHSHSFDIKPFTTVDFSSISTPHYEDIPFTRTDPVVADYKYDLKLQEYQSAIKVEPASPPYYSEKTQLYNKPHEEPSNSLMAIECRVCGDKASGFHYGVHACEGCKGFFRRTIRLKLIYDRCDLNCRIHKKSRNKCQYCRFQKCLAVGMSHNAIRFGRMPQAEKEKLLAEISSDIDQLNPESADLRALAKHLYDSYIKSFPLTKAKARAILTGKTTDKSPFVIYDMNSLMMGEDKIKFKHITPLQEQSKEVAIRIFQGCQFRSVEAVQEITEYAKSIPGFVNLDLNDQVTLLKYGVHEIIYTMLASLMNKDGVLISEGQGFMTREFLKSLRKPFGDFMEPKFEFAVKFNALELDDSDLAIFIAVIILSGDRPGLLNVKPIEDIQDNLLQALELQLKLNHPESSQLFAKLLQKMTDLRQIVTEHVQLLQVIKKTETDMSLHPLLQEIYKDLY
Peroxisome proliferator-activated receptor gamma/Nuclear receptor coactivator 2, sequence (Q15596 whole entry, further chain): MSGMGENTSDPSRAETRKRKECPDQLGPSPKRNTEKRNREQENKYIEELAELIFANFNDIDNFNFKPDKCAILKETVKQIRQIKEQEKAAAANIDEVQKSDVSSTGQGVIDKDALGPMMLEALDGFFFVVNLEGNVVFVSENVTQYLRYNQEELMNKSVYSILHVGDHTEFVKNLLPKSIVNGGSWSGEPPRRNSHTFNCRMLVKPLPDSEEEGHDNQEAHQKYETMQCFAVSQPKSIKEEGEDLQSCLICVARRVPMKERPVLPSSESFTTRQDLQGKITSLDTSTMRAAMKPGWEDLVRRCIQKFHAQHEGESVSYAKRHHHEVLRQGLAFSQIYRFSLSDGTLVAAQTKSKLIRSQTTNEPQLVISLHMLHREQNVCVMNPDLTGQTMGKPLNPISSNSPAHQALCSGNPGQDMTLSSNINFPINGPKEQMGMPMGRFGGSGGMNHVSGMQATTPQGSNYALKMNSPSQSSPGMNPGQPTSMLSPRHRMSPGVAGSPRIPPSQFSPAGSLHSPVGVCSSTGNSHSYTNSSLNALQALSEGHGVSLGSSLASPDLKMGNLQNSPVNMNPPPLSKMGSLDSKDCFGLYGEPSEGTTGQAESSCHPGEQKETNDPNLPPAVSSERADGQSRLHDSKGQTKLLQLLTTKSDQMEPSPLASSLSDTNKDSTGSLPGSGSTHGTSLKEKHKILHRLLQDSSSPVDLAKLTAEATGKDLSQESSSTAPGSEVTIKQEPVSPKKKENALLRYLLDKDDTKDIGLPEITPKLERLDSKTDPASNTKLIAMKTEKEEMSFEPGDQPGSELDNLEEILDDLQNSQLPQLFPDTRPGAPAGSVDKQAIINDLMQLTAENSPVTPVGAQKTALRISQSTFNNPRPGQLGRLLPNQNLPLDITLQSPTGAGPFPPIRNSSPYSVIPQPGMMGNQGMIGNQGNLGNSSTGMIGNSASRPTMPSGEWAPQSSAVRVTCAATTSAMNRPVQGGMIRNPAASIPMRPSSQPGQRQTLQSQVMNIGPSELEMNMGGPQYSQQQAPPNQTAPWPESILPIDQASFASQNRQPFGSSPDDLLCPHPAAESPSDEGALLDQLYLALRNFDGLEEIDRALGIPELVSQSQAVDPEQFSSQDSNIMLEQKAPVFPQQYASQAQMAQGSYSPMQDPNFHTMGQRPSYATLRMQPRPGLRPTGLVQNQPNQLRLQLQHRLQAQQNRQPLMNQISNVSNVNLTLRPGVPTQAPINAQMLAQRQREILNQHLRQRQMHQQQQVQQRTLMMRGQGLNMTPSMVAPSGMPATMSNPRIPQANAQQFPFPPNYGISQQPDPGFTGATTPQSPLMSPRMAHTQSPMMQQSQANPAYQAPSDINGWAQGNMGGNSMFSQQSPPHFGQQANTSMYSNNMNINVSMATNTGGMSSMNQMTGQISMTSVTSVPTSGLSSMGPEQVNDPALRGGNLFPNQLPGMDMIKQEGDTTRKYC

[15] = target: Peroxisome proliferator-activated receptor gamma/Nuclear receptor coactivator 1 (Homo sapiens, UniProt P37231); experiment: as §1, with “1 (SRC-1)” for “2 (SRC-2)”, “assays (depositor defined):AID1300, AID1808, AID504735, AID631]” for “assays: 1297, 1032 ]”; format: protein assay
CAAX prenyl protease 2 = target: T7, CAAX prenyl protease 2 (Saccharomyces cerevisiae S288c, UniProt Q03530); format: biochemical
T7 sequence (Q03530 whole entry): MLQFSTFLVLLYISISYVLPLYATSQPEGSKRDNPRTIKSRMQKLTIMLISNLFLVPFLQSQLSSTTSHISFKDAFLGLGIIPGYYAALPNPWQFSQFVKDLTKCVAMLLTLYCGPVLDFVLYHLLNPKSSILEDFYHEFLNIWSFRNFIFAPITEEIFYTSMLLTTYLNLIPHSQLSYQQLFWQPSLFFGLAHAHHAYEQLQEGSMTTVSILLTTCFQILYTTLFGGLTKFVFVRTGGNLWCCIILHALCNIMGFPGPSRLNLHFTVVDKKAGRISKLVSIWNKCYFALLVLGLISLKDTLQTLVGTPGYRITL

Hexokinase = target: T8, Hexokinase (Trypanosoma brucei, UniProt Q38C41); experiment: Confirmation assay for inhibitors of Trypanosoma brucei hexokinase 1-Analogue-first series. [Related pubchem assays (depositor defined):AID1430, AID1632, AID2516, AID2560, AID2579, AID2600, AID449725, AID492951]; format: functional
T8 sequence (Q38C41 whole entry): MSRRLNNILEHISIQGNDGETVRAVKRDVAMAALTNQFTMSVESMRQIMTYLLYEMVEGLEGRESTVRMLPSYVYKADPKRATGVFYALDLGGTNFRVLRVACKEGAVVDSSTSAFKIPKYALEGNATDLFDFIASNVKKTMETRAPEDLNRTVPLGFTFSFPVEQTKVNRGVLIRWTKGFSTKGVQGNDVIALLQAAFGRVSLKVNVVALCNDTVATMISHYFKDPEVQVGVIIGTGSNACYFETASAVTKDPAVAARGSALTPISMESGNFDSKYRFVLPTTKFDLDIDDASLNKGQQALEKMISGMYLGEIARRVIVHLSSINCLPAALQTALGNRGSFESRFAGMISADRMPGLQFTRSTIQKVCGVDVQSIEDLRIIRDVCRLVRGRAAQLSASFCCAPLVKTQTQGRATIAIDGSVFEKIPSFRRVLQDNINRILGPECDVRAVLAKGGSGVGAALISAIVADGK

5-hydroxytryptamine receptor 2A, sequence (P35363 whole entry): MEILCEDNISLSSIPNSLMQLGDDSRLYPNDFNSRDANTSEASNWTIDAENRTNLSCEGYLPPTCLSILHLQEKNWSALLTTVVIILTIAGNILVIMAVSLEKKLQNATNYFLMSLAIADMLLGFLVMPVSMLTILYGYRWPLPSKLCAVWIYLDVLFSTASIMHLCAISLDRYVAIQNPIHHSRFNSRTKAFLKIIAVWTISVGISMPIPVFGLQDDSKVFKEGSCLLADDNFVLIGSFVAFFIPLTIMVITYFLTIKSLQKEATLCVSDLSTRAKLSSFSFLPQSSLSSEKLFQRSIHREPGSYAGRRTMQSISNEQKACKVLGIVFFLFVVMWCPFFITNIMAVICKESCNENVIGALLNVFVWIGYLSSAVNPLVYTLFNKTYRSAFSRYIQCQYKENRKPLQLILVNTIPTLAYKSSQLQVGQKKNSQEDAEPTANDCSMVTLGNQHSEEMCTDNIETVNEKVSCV

## Cn1cc(C(F)(F)F)nc1-c1ccc(OCC(O)CNCCOc2ccc(O)c(C(N)=O)c2)cc1 (configuration not stated)
[1]
  EC50: 0.0952 µM (active)
[2]
  AC50: 25.1 µM (inconclusive)
Mu-type opioid receptor
  EC50: 92.4 µM (inactive)

## CC1Cc2cc3c(cc2C(c2ccc(N)cc2)=NN1)OCO3 (configuration not stated)
[2]
  AC50: 35.5 µM (inconclusive)

## CCCCN(C)CCNC(=O)c1ccc(Cn2c(=S)[nH]c3ccc(Br)cc3c2=O)cc1
[3]
  EC50: 0.606 µM (active)
[4]
  IC50: > 20 µM (inactive)
[5]
  IC50: 19.5 µM (active)
[6]
  CC50: 19.1 µM (active)
Bcl-2-related protein A1
  IC50: > 20 µM (inactive)
[7]
  EC50: > 60 µM (not active)

## CCC(C)NC(=O)CSc1nc2ccsc2c(=O)n1NC(=O)c1ccccc1 (configuration not stated)
Coagulation factor XII
  IC50: > 50 µM (inactive)

## Cc1ccc(C=Nn2c(-c3ccncc3)n[nH]c2=S)cc1
[8]
  IC50: 16.1 µM (active)
Phosphomannomutase 2
  IC50: > 100 µM (inactive)

## Cc1cccc(C(=O)NC(=S)N2CCN(C)CC2)c1
Cytochrome P450 2C9
  AC50: inconclusive

## NC(Cc1cccc(-c2ccccc2CP(=O)(O)O)c1)C(=O)O (configuration not stated)
[2]
  AC50: 35.5 µM (inconclusive)

## C[C@@H](O)C1NC(=O)[C@H](CCCCN)NC(=O)c2cc([N+](=O)[O-])cc(F)c2NCCCC[C@@H](C(N)=O)NC1=O (some centres not stated)
[4]
  IC50: > 20 µM (inactive)
[5]
  IC50: 14.2 µM (active)
Bcl-2-related protein A1
  IC50: > 20 µM (inactive)

## O=C(NCC(=O)N1CCN(S(=O)(=O)/C=C/c2ccccc2)CC1)c1ccccc1F
Coagulation factor XII
  IC50: > 50 µM (inactive)

## CCc1ccc(-c2nc(CSCC(=O)NCc3ccco3)c(C)o2)cc1
[9]
  EC50: 12.8 µM (active)
[10]
  EC50: 0.462 µM (active)
HEK293
  IC50: > 80 µM (inactive)
[11]
  EC50: 14.5 µM (active)

## O=C(O)c1cccc(CN2CCCCC2)c1
Cytochrome P450 2C9
  AC50: inconclusive

## O=C1NC(=S)S/C1=C/c1ccc(Oc2cnccn2)cc1
[12]
  AC50: 2.81 µM (active)

## CC(=O)c1sc(N2CCOCC2)nc1-c1ccccc1
[13]
  EC50: > 79.4 µM (not active)
[14]
  EC50: > 8.82 µM (not active)
[15]
  EC50: > 26.5 µM (inactive)

## CCN(CCCNC(=O)CSc1cc(=O)n(C)c2cc(Cl)ccc12)Cc1ccccc1
[13]
  EC50: > 79.4 µM (not active)
[14]
  EC50: > 79.4 µM (not active)
[15]
  EC50: > 79.4 µM (inactive)

## CN(C)S(=O)(=O)c1ccc(NC(=O)/C=C/c2ccccc2Cl)cc1
CAAX prenyl protease 2
  AC50: 4.18 µM (active)

## Cc1cc(C)c2sc(N(CCCN(C)C)C(=O)c3ccc(S(=O)(=O)N(C)Cc4ccccc4)cc3)nc2c1
[4]
  IC50: 2.65 µM (active)
[5]
  IC50: 4.77 µM (active)
Bcl-2-related protein A1
  IC50: > 20 µM (inactive)

## CCN1CCN(C(=O)CSc2cc(=O)n(C)c3ccccc23)CC1
[13]
  EC50: > 79.4 µM (not active)
[14]
  EC50: > 79.4 µM (not active)
[15]
  EC50: > 79.4 µM (inactive)

## COc1ccc(/C=C(\C#N)C(N)=O)c(OC)c1
Cytochrome P450 2C9
  AC50: inconclusive

## O=C(Cn1sc2ccccc2c1=O)NCc1ccccc1
Hexokinase
  IC50: 5.72 µM (active)

## CC(C)(C)c1ccc(C(=O)N2CCC(=O)c3ccc(Cl)cc32)cc1
Hexokinase
  IC50: > 25 µM (inactive)

## CCCCCCC(=O)Nc1cc(Cl)ccc1C(=O)O
Hexokinase
  IC50: > 25 µM (inactive)
